Reference: patent US20240415918A1, “Polypeptide and its use as a CCK receptor agonist/antagonist” (Centre for Regenerative Medicine & Health, Hong Kong …, priority 2021, published 2024)
*1 amine or outer side, *2 acyl side, *3 side chain or, on linkers, in order; H or OH if unused. Where a SMILES comes first, the peptide text is derived from it. [ ]: non-standard residue; d: D form. The star is where a group is joined. Trp(5-OH) = N[C@@H](Cc1c[nH]c2ccc(O)cc12)C(=O)O; dTrp(6-OH) = N[C@H](Cc1c[nH]c2cc(O)ccc12)C(=O)O; sY = N[C@@H](Cc1ccc(OS(=O)(=O)O)cc1)C(=O)O; Phe(3-Br) = N[C@@H](Cc1cccc(Br)c1)C(=O)O; Palmitoyl = CCCCCCCCCCCCCCCC(=O)*; Suc = O=C(CCC(=O)[*:2])[*:1]; Nle = CCCC[C@H](N)C(=O)O

What was measured:
[1] = target: T1, CCK-B receptors (CHO-CCK) (Homo sapiens, UniProt P32239); test: Calcium flux (Fluo-8) agonist test on CHO-CCK model cells; type: cell-based; settings: CHO-CCK cells, Fluo-8 calcium flux
T1 construct: expressed in transfected cells; host or cells: CHO (CHO-CCK model cells)
T1 sequence (P32239 1-447): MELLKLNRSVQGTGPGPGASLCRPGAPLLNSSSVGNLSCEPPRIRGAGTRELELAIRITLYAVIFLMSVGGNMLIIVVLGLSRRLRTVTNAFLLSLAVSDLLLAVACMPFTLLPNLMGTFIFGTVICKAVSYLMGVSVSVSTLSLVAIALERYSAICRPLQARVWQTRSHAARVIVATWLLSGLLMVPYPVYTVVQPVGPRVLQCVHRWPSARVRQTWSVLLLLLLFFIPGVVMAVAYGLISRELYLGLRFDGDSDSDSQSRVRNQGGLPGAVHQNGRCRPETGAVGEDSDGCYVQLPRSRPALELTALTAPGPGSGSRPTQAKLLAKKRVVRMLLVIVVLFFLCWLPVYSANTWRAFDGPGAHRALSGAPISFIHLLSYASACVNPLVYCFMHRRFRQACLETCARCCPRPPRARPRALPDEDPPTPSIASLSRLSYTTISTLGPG
Summary of the method: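 Agonist-mode Fluo-8 calcium flux read on CHO-CCK cells after dye loading 30 min at 37 °C plus 30 min at room temperature.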

[2] = target: T1, CCK-B receptors (CHO-CCK); test: Calcium flux (Fluo-8) antagonist test on CHO-CCK model cells in presence of CCK8; type: cell-based
[3] = in presence of 10 nM CCK8, bound in μM

Row | Structure (SMILES) | EC50 ([1]; 100% control = 20 nM CCK8) [µM] | EC50 ([2]; in presence of 10 nM CCK8) [µM] | EC50 ([1]; bound in μM) [µM] | EC50 [2, 3] [µM] | EC50 ([1]; bound printed in nm in the cell) [µM]
1 | CSCC[C@H](NC(=O)[C@H](Cc1c[nH]c2ccccc12)NC(C)=O)C(=O)N[C@@H](CC(=O)O)C(=O)N[C@@H](Cc1cccc(Br)c1)C(=O)N[C@@H](C)C(N)=O [HT-201, Ac-D-Trp-Met-Asp-Phe(3-Br)-Ala-NH2] | 4.29 | 3.6 |  |  | 
2 | CSCC[C@H](NC(=O)[C@H](Cc1ccc(O)cc1)NC(=O)[C@H](CC(=O)O)NC(C)=O)C(=O)NCC(N)=O [HT-206, Ac-Asp-Tyr-Met-Gly-NH2] (Ac-DYMG-NH2) |  |  | > 10 | > 10 | 
3 | CSCC[C@H](NC(=O)[C@H](Cc1ccc(O)cc1)NC(C)=O)C(=O)NCC(=O)N[C@@H](Cc1c[nH]c2ccccc12)C(N)=O [HT-207, Ac-Tyr-Met-Gly-Trp-NH2] (Ac-YMGW-NH2) |  |  | > 10 | > 10 | 
4 | CSCC[C@H](NC(=O)[C@H](Cc1ccc(OS(=O)(=O)O)cc1)NC(=O)[C@H](CC(=O)O)NC(C)=O)C(=O)NCC(N)=O [HT-208, Ac-Asp-Tyr(SO3H)-Met-Gly-NH2] (Ac-D[sY]MG-NH2) |  |  | > 10 | > 10 | 
5 | CSCC[C@H](NC(=O)[C@H](Cc1ccc(OS(=O)(=O)O)cc1)NC(C)=O)C(=O)NCC(=O)N[C@@H](Cc1c[nH]c2ccccc12)C(N)=O [HT-209, Ac-Tyr(SO3H)-Met-Gly-Trp-NH2] (Ac-[sY]MGW-NH2) |  | 2.15 | > 10 |  | 
6 | CSCC[C@H](NC(=O)[C@H](Cc1c[nH]c2ccccc12)NC(=O)CNC(=O)[C@H](CCSC)NC(C)=O)C(N)=O [HT-210, Ac-Met-Gly-Trp-Met-NH2] (Ac-MGWM-NH2) | 0.398 | 6.45 |  |  | 
7 | CSCC[C@H](NC(=O)[C@H](Cc1c[nH]c2ccccc12)NC(=O)CNC(C)=O)C(=O)N[C@@H](CC(=O)O)C(N)=O [HT-211, Ac-Gly-Trp-Met-Asp-NH2] (Ac-GWMD-NH2) |  |  | > 10 | > 10 | 
8 | CCCC[C@H](NC(C)=O)C(=O)NCC(=O)N[C@@H](Cc1c[nH]c2ccccc12)C(=O)N[C@@H](CCSC)C(N)=O [HT-212, Ac-Nle-Gly-Trp-Met-NH2] (Ac-[Nle]GWM-NH2) |  |  | > 10 | > 10 | 
9 | CCCC[C@H](NC(=O)[C@H](Cc1c[nH]c2ccccc12)NC(=O)CNC(=O)[C@H](CCCC)NC(C)=O)C(N)=O [HT-213, Ac-Nle-Gly-Trp-Nle-NH2] (Ac-[Nle]GW[Nle]-NH2) | 0.533 | 4.92 |  |  | 
10 | CCCC[C@H](NC(=O)[C@H](Cc1c[nH]c2ccccc12)NC(=O)CNC(C)=O)C(=O)N[C@@H](CC(=O)O)C(N)=O [HT-214, Ac-Gly-Trp-Nle-Asp-NH2] (Ac-GW[Nle]D-NH2) |  |  | > 10 | > 10 | 
11 | CC[C@H](C)[C@H](NC(=O)[C@H](CCC(=O)O)NC(=O)[C@H](CC(N)=O)NC(=O)[C@@H](NC(=O)[C@H](CC(C)C)NC(=O)[C@H](CCC(=O)O)NC(=O)[C@H](CO)NC(=O)[C@H](CCC(=O)O)NC(C)=O)[C@@H](C)O)C(=O)N1CCC[C@H]1C(=O)N[C@@H](C)C(=O)N[C@@H](CCC(=O)O)C(=O)N[C@H](Cc1c[nH]c2ccccc12)C(=O)N[C@@H](CCSC)C(=O)N[C@@H](CC(=O)O)C(=O)N[C@@H](Cc1cccc(Br)c1)C(N)=O [HT-219, Ac-Glu-Ser-Glu-Leu-Thr-Asn-Glu-lle-Pro-Ala-Glu-D-Trp-Met-Asp-Phe(3-Br)-NH2] (Ac-ESELTNEIPAE[dW]MD[Phe(3-Br)]-NH2) | 0.327 | 2.58 |  |  | 
12 | CSCC[C@H](NC(=O)[C@@H](Cc1c[nH]c2ccccc12)NC(=O)[C@H](CCC(=O)O)NC(=O)[C@H](CC(C)C)NC(=O)CNC(=O)[C@H](Cc1c[nH]cn1)NC(=O)[C@H](CO)NC(=O)CNC(=O)[C@H](CCCCN)NC(=O)[C@H](CCCNC(=N)N)NC(=O)[C@H](CCCNC(=N)N)NC(=O)[C@H](Cc1c[nH]cn1)NC(=O)[C@H](CCCCN)NC(=O)[C@@H](NC(C)=O)[C@@H](C)O)C(=O)N[C@@H](CC(=O)O)C(=O)N[C@@H](Cc1cccc(Br)c1)C(N)=O [HT-220] (Ac-TKHRRKGSHGLE[dW]MD[Phe(3-Br)]-NH2) | 8.39 | 2.88 |  |  | 
13 | CSCC[C@H](NC(=O)[C@H](Cc1ccccc1)NC(C)=O)C(=O)N[C@@H](CC(=O)O)C(=O)N[C@@H](Cc1cccc(Br)c1)C(N)=O [HT-223, Ac-Phe-Met-Asp-Phe(3-Br)-NH2] (Ac-FMD[Phe(3-Br)]-NH2) | 0.225 | 1.88 |  |  | 
14 | CCCC[C@H](NC(=O)[C@@H](Cc1c[nH]c2ccccc12)NC(C)=O)C(=O)N[C@@H](CC(=O)O)C(=O)N[C@@H](Cc1c[nH]c2ccc(O)cc12)C(N)=O [HT-226, Ac-D-Trp-Nle-Asp-(5-HTP)-NH2] (Ac-[dW][Nle]D[Trp(5-OH)]-NH2) | 14.2 |  |  | > 10 | 
15 | CCCC[C@H](NC(=O)[C@@H](Cc1c[nH]c2cc(O)ccc12)NC(C)=O)C(=O)N[C@@H](CC(=O)O)C(=O)N[C@@H](Cc1cccc(Br)c1)C(N)=O [HT-227, Ac-(5-HTP)-Nle-Asp-Phe(3-Br)-NH2] (Ac-[dTrp(6-OH)][Nle]D[Phe(3-Br)]-NH2) | 0.022 | 3.4 |  |  | 
16 | CCCC[C@H](NC(=O)[C@H](Cc1c[nH]c2ccccc12)NC(C)=O)C(=O)N[C@@H](CC(=O)O)C(=O)N[C@@H](Cc1cn(C)c2ccccc12)C(N)=O [HT-228, Ac-D-Trp-Nle-Asp-(1-Me-Trp)-NH2] | 0.262 | 3.07 |  |  | 
17 | CCCC[C@H](NC(=O)[C@H](Cc1c[nH]c2ccccc12)NC(C)=O)C(=O)N[C@@H](CC(=O)O)C(=O)N[C@@H](Cc1c(C)[nH]c2ccccc12)C(N)=O [HT-229, Ac-D-Trp-Nle-Asp-(2-Me-Trp)-NH2] | 8.2 |  |  | > 10 | 
18 | CCCC[C@H](NC(=O)[C@@H](Cc1cn(C)c2ccccc12)NC(C)=O)C(=O)N[C@@H](CC(=O)O)C(=O)N[C@@H](Cc1cn(C)c2ccccc12)C(N)=O [HT-232, Ac-(1-Me-Trp)-Nle-Asp-(1-Me-Trp)-NH2] | 0.376 | 3.28 |  |  | 
19 | CCCC[C@H](NC(=O)[C@@H](Cc1cn(C)c2ccccc12)NC(C)=O)C(=O)N[C@@H](CC(=O)O)C(=O)N[C@@H](Cc1c(C)[nH]c2ccccc12)C(N)=O [HT-233, Ac-(1-Me-Trp)-Nle-Asp-(2-Me-Trp)-NH2] |  | 3.65 | > 10 |  | 

Second part, the molecule after the results:

Row | EC50 ([1]; 100% control = 20 nM CCK8) [µM] | EC50 ([2]; in presence of 10 nM CCK8) [µM] | EC50 ([1]; bound in μM) [µM] | EC50 [2, 3] [µM] | EC50 ([1]; bound printed in nm in the cell) [µM] | Structure (SMILES)
20 | 0.0051 | 0.192 |  |  |  | CCCC[C@H](NC(=O)[C@@H](Cc1c[nH]c2ccccc12)NC(=O)CNC(=O)CCC(=O)O)C(=O)N[C@@H](CC(=O)O)C(=O)N[C@@H](Cc1cccc(Br)c1)C(N)=O [HT-202, (Suc)-Gly-D-Trp-Nle-Asp-Phe(3-Br)-NH2] (Suc-G[dW][Nle]D[Phe(3-Br)]-NH2)
21 | 0.036 | 1.59 |  |  |  | CCCCCCCCCCCCCCCC(=O)NCC(=O)N[C@H](Cc1c[nH]c2ccccc12)C(=O)N[C@@H](CCCC)C(=O)N[C@@H](CC(=O)O)C(=O)N[C@@H](Cc1cccc(Br)c1)C(N)=O [HT-203, (Pal)-Gly-D-Trp-Nle-Asp-Phe(3-Br)-NH2] (Palmitoyl-G[dW][Nle]D[Phe(3-Br)]-NH2)
22 |  | 0.237 |  |  | < 0.0001 | CCCC[C@H](NC(=O)[C@H](Cc1c[nH]c2ccccc12)NC(=O)CNC(C)=O)C(=O)N[C@@H](CC(=O)O)C(=O)N[C@@H](Cc1cccc(Br)c1)C(N)=O [HT-215, Ac-Gly-Trp-Nle-Asp-Phe(3-Br)-NH2] (Ac-GW[Nle]D[Phe(3-Br)]-NH2)
23 | 0.588 | 1.44 |  |  |  | CSCC[C@H](NC(=O)[C@H](Cc1ccc(OS(=O)(=O)O)cc1)NC(=O)[C@H](CC(=O)O)NC(C)=O)C(=O)NCC(=O)N[C@@H](Cc1c[nH]c2ccccc12)C(N)=O [HT-216, Ac-Asp-Tyr(SO3H)-Met-Gly-Trp-NH2] (Ac-D[sY]MGW-NH2)
24 | 0.395 | 0.68 |  |  |  | CSCC[C@H](NC(=O)[C@@H](Cc1c[nH]c2ccccc12)NC(=O)CNC(=O)[C@H](Cc1ccc(O)cc1)NC(=O)[C@H](CC(N)=O)NC(=O)[C@H](CCCCN)NC(=O)[C@@H](NC(=O)[C@H](C)NC(=O)[C@H](CC(N)=O)NC(=O)[C@@H](NC(=O)[C@H](Cc1c[nH]cn1)NC(=O)CNC(=O)[C@H](CO)NC(=O)[C@H](CC(N)=O)NC(=O)[C@H](C)NC(=O)[C@H](Cc1ccc(O)cc1)NC(C)=O)C(C)C)C(C)C)C(=O)N[C@@H](CC(=O)O)C(=O)N[C@@H](Cc1cccc(Br)c1)C(N)=O [HT-218] (Ac-YANSGHVNAVKNYG[dW]MD[Phe(3-Br)]-NH2)
25 | 0.0254 | 0.0803 |  |  |  | CSCC[C@H](NC(=O)[C@H](Cc1cccc(Br)c1)NC(C)=O)C(=O)N[C@@H](CC(=O)O)C(=O)N[C@@H](Cc1cccc(Br)c1)C(N)=O [HT-224, Ac-Phe(3-Br)-Met-Asp-Phe(3-Br)-NH2] (Ac-[Phe(3-Br)]MD[Phe(3-Br)]-NH2)
26 | 0.0332 | 0.475 |  |  |  | CCCC[C@H](NC(=O)[C@H](Cc1c[nH]c2ccccc12)NC(C)=O)C(=O)N[C@@H](CC(=O)O)C(=O)N[C@@H](Cc1c[nH]c2ccccc12)C(N)=O [HT-225, Ac-D-Trp-Nle-Asp-Trp-NH2]
27 | 0.00192 | 0.0575 |  |  |  | CCCC[C@H](NC(=O)[C@@H](Cc1cn(C)c2ccccc12)NC(C)=O)C(=O)N[C@@H](CC(=O)O)C(=O)N[C@@H](Cc1cccc(Br)c1)C(N)=O [HT-230, Ac-(1-Me-Trp)-Nle-Asp-Phe(3-Br)-NH2]
28 | 0.252 | 1.43 |  |  |  | CCCC[C@H](NC(=O)[C@@H](Cc1c(C)[nH]c2ccccc12)NC(C)=O)C(=O)N[C@@H](CC(=O)O)C(=O)N[C@@H](Cc1cccc(Br)c1)C(N)=O [HT-231, Ac-(2-Me-Trp)-Nle-Asp-Phe(3-Br)-NH2]
